Values quoted from earlier work in patent US3993756A, “Antilipemic agent containing a soybean oil fraction” (priority 1975, dated 1976).

Key:
[1] = in vivo
[2] = system: cholesterol level in blood serum; settings: for effect on cholesterol level in blood serum: in vivo

Structure (SMILES)	absorption by the body [1]	liver or kidney troubles ([2]; 20 to 30 g per day, long periods)	effect on cholesterol level in blood serum [2]
CC[C@H](CC[C@@H](C)[C@H]1CC[C@H]2[C@@H]3CC=C4C[C@@H](O)CC[C@]4(C)[C@H]3CC[C@]12C)C(C)C [β-sitosterol]	low absorption	inviting liver or kidney troubles	effective for lowering the cholesterol level in blood serum
CC[C@H](/C=C/[C@@H](C)[C@H]1CC[C@H]2[C@@H]3CC=C4C[C@@H](O)CC[C@]4(C)[C@H]3CC[C@]12C)C(C)C [stigmasterol]	–	–	effective for lowering the cholesterol level in blood serum
